# From patent US5688485A, “Radiolabelled complexes of ester-substituted diaminethiols” (The DuPont Merck Pharmaceutical Company, priority 1992, dated 1997)
# Where two headings read alike, the source gives them in different places.
# Key:
# [1] = rhesus monkey, in vivo
# Description: Three adult male Rhesus monkeys were used for planar scintigraphic imaging. Anesthesia was induced with ketamine and maintained with 1-2% halothane in a 70/30 mixture of nitrous oxide and oxygen.
# All acquisitions were performed using a Picker Digital Dyna Camera and a Siemens MicroDELTA terminal/MAXDELTA system. A high resolution parallel-hole collimator ("HEX48") was mounted on the camera. The general static acquisition protocol was employed, using an acquisition matrix of 128 by 128 pixels, in word mode. Linearity, Z- and uniformity correction as provided for in the camera console, were employed and maintained.
# To provide correction for attenuation, a transmission image of each animal was required. This had to be acquired in such a fashion as to permit the location of individual organs to be delineated from an aligned emission image. To do this, an 18-inch commercial refillable flood source (Nuclear Associates, Carle Place, N.Y.) was filled with water on a flat, horizontal surface. It was then loaded with between 20 mCi (740 Mbq) and 30 mCi (1110 Mbq) of Tc99mO4^-, and placed on a rolling cart. A Picker high-resolution collimator was then placed atop the source and the cart positioned under the patient examination table of the camera.
# For each animal, a transmission image was acquired immediately prior to the control study injection, in the following fashion: An initial "flood" image was taken of the collimated source with neither the animal nor the examination table in place. Without moving anything else, the examination table, with the anesthetized animal, was placed between the source and the camera. Images were then taken of both the upper and lower portions of the body using a 128×128 pixel matrix in word mode. Table positioning was restricted by the track system so that positioning markers were necessary only for the dimension parallel to the animal's vertical axis.
# Without moving the camera, the source was withdrawn and removed from the room. Adjustments to the camera-subject distance were made only by raising or lowering the table. The control compound was then injected and the control study begun. In this way, organs could be identified from the control study and the regions applied to the transmission study to determine attenuation correction factors on a per-organ basis. In addition, an "efficiency" factor was determined from images taken of a small flask containing a measured amount of radioactivity.
# Following the injection of Tc-99m labeled materials, images were acquired of each animal using "spot" views over the upper and lower portions of the body with conjugate views (i.e. 180-degree opposed views) for each.
# The resulting image data was analyzed by creating regions of interest (ROI's) for each organ and determining the sum of the recorded gamma photons for each organ in each view. From the transmission view, an attenuation correction factor was derived for each organ and the activity in the organ determined by taking the square root of the product of the ROI sums for conjugate views of the organ and then multiplying by the attenuation correction factor for that organ and then by the efficiency factor.
# Each animal was imaged with Tc-99m-(L,L)-N,N'-1,2-ethylenediylbiscysteine, diethyl ester in order to serve as its own control. One test isomer was then administered to each of the monkeys. Frequent blood samples were drawn from a peripheral leg vein. Regions of interest were drawn around all pertinent organs and time-activity curves were constructed.
# [2] = cited from earlier work
# [3] = in words; cited from earlier work
Biodistribution: Brain ([1]; 30 min),Biodistribution: Gall Bladder ([1]; 30 min),Biodistribution: Urinary Bladder ([1]; 30 min),Biodistribution: Brain ([1]; 60 min),Biodistribution: Gall Bladder ([1]; 60 min),Biodistribution: Urinary Bladder ([1]; 60 min),Compound,Route / rate of renal elimination ([2]; in words),other results
2.1 percentage of the initial inje,2.7 percentage of the initial inje,4.2 percentage of the initial inje,1.8 percentage of the initial inje,6.4 percentage of the initial inje,4.0 percentage of the initial inje,"anti-Tc-99m-(D,L)-N,N'-1,2-ethylenediylbiscysteine, diethyl ester [Example 3]",–,–
–,–,–,–,–,–,Tc-99m-mercaptoacetyltriglycine [Tc-99m-MAG3],secreted by the kidneys selectively by tubular secretion and approximately as rapidly as OIH,organ specificity ([2]; in words): less than desired
–,–,–,–,–,–,Tc-99m-diethylenetriamine pentaacetic acid [Tc-99m-DTPA],eliminated entirely or nearly entirely by glomerular filtration,maximum extraction efficiency ([2]; in vivo): 20-25%
–,–,–,–,–,–,"O=C(O)CNC(=O)c1ccccc1[131I] [Example I-131-OIH, I-131-o-iodohippurate]",rapidly removed from the blood by active tubular secretion,renal extraction efficiency ([2]; in vivo): 65-80%; radiation burden to the patient [3]: significant radiation burden to the patient
1.7 percentage of the initial inje,5.5 percentage of the initial inje,5.0 percentage of the initial inje,1.4 percentage of the initial inje,5.2 percentage of the initial inje,15 percentage of the initial inje,"Tc-99m-(D,D)-N,N'-1,2-ethylenediylbiscysteine, diethyl ester [Example 5]",–,–
5.8 percentage of the initial inje,10 percentage of the initial inje,29 percentage of the initial inje,5.6 percentage of the initial inje,17 percentage of the initial inje,42 percentage of the initial inje,"Tc-99m-(L,L)-N,N'-1,2-ethylenediylbiscysteine, diethyl ester [Example 4]",–,–
3.4 percentage of the initial inje,2.2 percentage of the initial inje,58 percentage of the initial inje,3.0 percentage of the initial inje,6.2 percentage of the initial inje,74 percentage of the initial inje,"syn-Tc-99m-(D,L)-N,N'-1,2-ethylenediylbiscysteine, diethyl ester [Example 2]",–,"Renal excretion [1]: most rapidly excreted; Uptake in other organs / liver activity [1]: low uptake in other organs, especially the gall bladder"
–,–,–,–,–,–,"Nc1ccc(C(=O)NCC(=O)O)cc1 [PAH, p-aminohippuric acid]",–,removed from the plasma by active secretion into the tubules ([2]; in vivo): approximately 70%
–,–,–,–,–,–,O=C(O)CNC(=O)c1ccccc1[123I] [Example I-123-OIH],–,radiation burden to the patient [3]: much lower radiation burden to the patient
